Values joined by “and” are separate entries in the source; they are usually repeats but may differ in a detail not shown here. Identical values can stand only once.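 Tested at 5 concentrations; 48 h exposure; 96-well plates; endpoints linearly interpolated, else capped at highest concentration. GI50 = concentration required for 50% inhibition of growth. At the TGI there is no net growth.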
Experiments:
Assay in all cases: NCI anticancer screen, dose series, 48 h
DMS 273 small cell lung = test system: DMS 273 small cell lung
HOP-18 NSCLC = test system: HOP-18 NSCLC
DU-145 prostate = test system: DU-145 prostate
HS 578T breast = test system: HS 578T breast
MCF7 breast = test system: MCF7 breast
MDA-MB-435 = test system: MDA-MB-435
T-47D breast = test system: T-47D breast
MDA-N = test system: MDA-N

| SMILES | GI50 (DMS 273 small cell lung) | TGI (DMS 273 small cell lung) | GI50 (HOP-18 NSCLC) | TGI (HOP-18 NSCLC) | GI50 (DU-145 prostate) | TGI (DU-145 prostate) | GI50 (HS 578T breast) | TGI (HS 578T breast) | GI50 (MCF7 breast) | TGI (MCF7 breast) | GI50 (MDA-MB-435) | TGI (MDA-MB-435) | GI50 (T-47D breast) | TGI (T-47D breast) | TGI (MDA-N) | GI50 (MDA-N) |
| --- | --- | --- | --- | --- | --- | --- | --- | --- | --- | --- | --- | --- | --- | --- | --- | --- |
| COc1ccc(/C(=N\NC(=S)NN)C(c2ccc(OC)cc2)C2C(=O)Oc3ccccc32)cc1 (configuration not stated) | > 100 µM | > 100 µM | > 100 µM | > 100 µM |  |  |  |  |  |  |  |  |  |  |  |  |
| COc1ccc(OC)c(Cn2cc3c(c2-c2ccccc2)CCc2cnoc2-3)c1 |  |  |  |  | 17.4 µM | > 100 µM | 4.95 µM | > 100 µM | 4.47 µM | > 100 µM | 2.18 µM | 9.11 µM | 18.1 µM | > 100 µM |  |  |
| CC1(C)CC2C(=O)c3ccccc3NC2c2ccccc21 (configuration not stated) |  |  |  |  |  | > 100 µM |  | 6.99 µM |  | > 100 µM |  |  |  | > 100 µM |  |  |
| O=C(N/N=C/c1cccc(F)c1)c1ccncc1 |  | > 100 µM |  | > 100 µM |  |  |  |  |  |  |  |  |  |  |  |  |
| C=C1C(=O)O[C@H]2[C@H]1CC/C(COC(=O)NCC(C)c1ccc(CC(C)C)cc1)=C\CC[C@@]1(C)O[C@@H]21 (some centres not stated) |  |  |  |  | 2.93 µM | 6.95 µM | 1.53 µM | 15 µM | 0.902 µM | 4.18 µM | 1.24 µM | 4.86 µM | 2.2 µM | 7.83 µM |  |  |
| CC(=O)/C(=C/c1ccccc1F)C(=O)c1ccccc1 |  |  |  |  |  | > 100 µM |  | > 100 µM |  | > 100 µM |  | > 100 µM |  | > 100 µM | > 100 µM |  |
| CCOC(=O)C(NC(=O)c1nc[nH]c1[N+](=O)[O-])C(C)C (configuration not stated) |  | > 100 µM |  |  |  |  |  |  |  |  |  |  |  |  |  |  |
| Cc1c2ccccc2cc2ccc3oc([N+](=O)[O-])cc3c12 |  | > 100 µM |  | 62.8 µM |  |  |  |  |  |  |  |  |  |  |  |  |
| CCC1=CC2CN(C1)Cc1c([nH]c3ccccc13)[C@@](C(=O)OC)(c1cc3c(cc1OC)N(C)[C@H]1[C@@](O)(C(=O)OC)[C@H](OC(C)=O)[C@]4(CC)C=CCN5CC[C@]31[C@@H]54)C2 (some centres not stated) |  |  |  |  |  |  | 0.00827 µM and 0.0277 µM | 19.8 µM and 45.7 µM | < 0.005 µM | 50 µM and > 100 µM | < 0.005 µM |  | 0.00507 µM | 50 µM |  |  |
| Cn1cc(C2=C(c3cn(C4CCN(Cc5ccccn5)CC4)c4ccccc34)C(=O)NC2=O)c2ccccc21 |  |  |  |  | > 100 µM | > 100 µM | 3.75 µM | > 72.1 µM | 3.23 µM | > 100 µM | 2.87 µM | > 100 µM | 5.45 µM | > 100 µM |  |  |
| O=C(O)c1ccc(C2C(=O)N[C@@H]3CCC[C@H]23)cc1 (some centres not stated) |  | > 100 µM |  | > 100 µM |  |  |  |  |  |  |  |  |  |  |  |  |
| CCOC(=O)NC(=O)c1cn(CCN2CCN(C(=O)CCCCCCCCCCC(=O)N3CCN(CCn4cc(C(=O)NC(=O)OCC)c(=O)[nH]c4=O)CC3)CC2)c(=O)[nH]c1=O |  |  |  | > 100 µM |  |  |  |  |  |  |  |  |  |  |  |  |
| CC(=O)N1CCC2(c3ccccc3N(C(C)=O)C2c2ccc(O)cc2)C1C(=O)O (configuration not stated) |  | > 100 µM |  | > 100 µM |  |  |  |  |  |  |  |  |  |  |  |  |
| CCN(C(=O)/C=C/c1ccco1)c1ccccc1 |  |  |  |  |  | > 100 µM |  | > 100 µM |  | > 100 µM |  | > 100 µM |  | > 100 µM | > 100 µM |  |
| CSC1=Nc2ccccc2N=C(c2ccc(Cl)cc2)C1 |  |  |  | > 100 µM |  |  |  |  |  |  |  |  |  |  |  |  |
| CN(C)CCNC(=O)Cn1ccc(=O)c2c([N+](=O)[O-])cccc21 |  |  |  |  |  | > 100 µM |  | > 100 µM |  | > 100 µM |  | > 100 µM |  | > 100 µM | > 100 µM |  |
| O=C(O)c1ccccc1/C=N/N=C1c2ccccc2-c2ccccc21 |  |  |  |  |  | > 100 µM |  | 34.7 µM |  | > 100 µM |  | > 100 µM |  | > 100 µM | > 100 µM |  |
| O=C1CCCCN1CCCCC#Cc1cccc(C#Cc2cccnc2)c1 |  |  |  |  | 43.2 µM | > 100 µM | 28.5 µM | > 100 µM | 30.4 µM | > 100 µM | 28.9 µM | > 100 µM | 5.66 µM | 26 µM |  |  |
| COc1cnc2c(c1)C(=O)c1c-2n(CCCN2CCN(C)CC2)c(=O)c2cc([N+](=O)[O-])ccc12 |  |  |  |  | 0.22 µM | 0.587 µM | 14.5 µM | 31 µM | 0.0162 µM | 1.2 µM | 0.166 µM | 0.334 µM | 1.77 µM | 4.01 µM |  |  |
| CC(C)(C)c1cc(C=C(C#N)C#N)cc(C(C)(C)C)c1O |  | 5.51 µM |  |  | 0.0894 µM | 18.5 µM and 56.8 µM | 0.133 µM | 22.7 µM and 4.49 µM |  | 41 µM | 0.252 µM | 29.9 µM and 12.4 µM | 0.0679 µM | 0.645 µM and 5.07 µM | 56.7 µM | 0.346 µM |
| O=[N+]([O-])c1ccc(-c2ccc(-c3csc(Nc4ccccc4)n3)o2)cc1 |  | 49.4 µM |  | 29.4 µM |  |  |  |  |  |  |  |  |  |  |  |  |
| COC(=O)C1(C)Cc2cc(OC(C)=O)c(OC(C)=O)cc2N1 (configuration not stated) |  |  |  |  | 14.1 µM | > 58.9 µM |  | > 24.1 µM | 3.74 µM | 21.6 µM | 6.29 µM | 61.5 µM | 4.55 µM | > 37.8 µM |  |  |
| COc1ccc(C(=O)c2ccc([As]=O)cc2)cc1 (configuration not stated) |  |  |  |  | 0.0735 µM | 0.198 µM | 0.149 µM | 0.586 µM | 0.0212 µM | 0.136 µM | 0.121 µM | 0.254 µM | 0.0288 µM | 0.204 µM |  |  |
| C=C1C(=O)O[C@H]2[C@H]1CC/C(C=Nc1c(N)cc(C(F)(F)F)cc1Br)=C\CC[C@@]1(C)O[C@@H]21 |  |  |  |  | 1.48 µM | 2.95 µM | 2.08 µM | 9.5 µM | 0.982 µM | 4.48 µM | 1.86 µM | 5.74 µM | 1.45 µM | 3.42 µM |  |  |
| CCNC(=O)c1noc(-c2cc(C(C)C)c(O)cc2O)c1-c1ccc(CN2CCOCC2)cc1 |  |  |  |  | < 0.0222 µM | 21.1 µM | 2.47 µM | 56.9 µM | < 0.0194 µM | > 55 µM | < 0.0167 µM | 19.5 µM | 0.0382 µM | 47.8 µM |  |  |
| CCCCn1c(-c2ccc(C(=O)O/N=C(\N)c3ccc4c(c3)OCO4)cc2)nc(-c2ccccc2)c1-c1ccccc1 |  |  |  |  | 1.65 µM | 3.21 µM | 1.88 µM | 5.09 µM | 2.38 µM | 8.83 µM | 1.93 µM | 3.9 µM | 1.85 µM | 4.95 µM |  |  |
| CCC(=O)Nc1nc2c(ncn2C2OC(COC(=O)CC)C(OC(=O)CC)C2OC(=O)CC)c(=O)[nH]1 (configuration not stated) |  | > 100 µM |  |  |  |  |  |  |  |  |  |  |  |  |  |  |
| CC(C)CCC1(CCN)C(=O)NC(=O)NC1=O |  |  |  |  |  | > 100 µM |  | > 100 µM |  | > 100 µM |  | > 100 µM |  | > 100 µM | > 100 µM |  |
| N#CNC(N)=Nc1ccc(Cl)cc1 |  |  |  |  |  | > 100 µM |  | > 100 µM |  | > 100 µM |  | > 100 µM |  | > 100 µM | > 100 µM |  |
| c1c[nH]c(CN2CCOCC2)n1 |  |  |  |  |  | > 100 µM |  | > 100 µM |  | > 100 µM |  | > 100 µM |  | > 100 µM | > 100 µM |  |

— PubChem BioAssay (NCI)
